The text below walks through data of US20240254138A1, “TRICYCLIC PYRIMIDINES AS CYCLIN-DEPENDENT KINASE 7 (CDK7) INHIBITORS” (JANSSEN PHARMACEUTICA NV, priority 2021, published 2024).

The structures appear in SMILES notation. Read-outs that look alike come from different tables or passages of the source.

The target of experiment [1] is CDK7/cyclinH/MAT1 trimeric complex (Homo sapiens, UniProt P50613). Description: In vitro CDK7 assay, potency of irreversible covalent inhibitors (kinact/KI), coupled PK/LDH ADP readout at 340 nm. The note with it: for Ki: CDK7 (20 nM enz.) (KI, μM); for kinact: read-out: CDK7 (20 nM enz.) (kinact, s^−1), 20 nM enzyme.
Sequence of CDK7/cyclinH/MAT1 trimeric complex (P50613 whole entry): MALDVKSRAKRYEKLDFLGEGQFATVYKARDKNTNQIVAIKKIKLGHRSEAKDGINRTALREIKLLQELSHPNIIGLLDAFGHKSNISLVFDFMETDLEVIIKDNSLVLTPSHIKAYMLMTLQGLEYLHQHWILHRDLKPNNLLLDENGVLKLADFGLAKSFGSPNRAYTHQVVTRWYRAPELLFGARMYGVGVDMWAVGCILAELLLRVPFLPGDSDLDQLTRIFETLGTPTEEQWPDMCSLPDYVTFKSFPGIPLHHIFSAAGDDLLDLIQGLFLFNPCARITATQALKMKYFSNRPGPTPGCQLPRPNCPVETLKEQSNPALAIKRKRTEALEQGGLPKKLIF
Sequence of CDK7/cyclinH/MAT1 trimeric complex (P51946 whole entry partner): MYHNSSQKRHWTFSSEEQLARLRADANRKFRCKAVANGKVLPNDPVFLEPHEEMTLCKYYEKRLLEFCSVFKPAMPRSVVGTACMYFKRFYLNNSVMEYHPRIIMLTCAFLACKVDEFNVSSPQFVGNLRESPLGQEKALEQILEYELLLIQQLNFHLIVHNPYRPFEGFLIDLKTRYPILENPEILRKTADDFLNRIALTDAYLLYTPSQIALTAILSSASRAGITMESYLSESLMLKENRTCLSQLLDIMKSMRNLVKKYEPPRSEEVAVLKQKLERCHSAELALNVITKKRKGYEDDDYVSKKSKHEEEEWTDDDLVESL
Sequence of CDK7/cyclinH/MAT1 trimeric complex (P51948 whole entry partner): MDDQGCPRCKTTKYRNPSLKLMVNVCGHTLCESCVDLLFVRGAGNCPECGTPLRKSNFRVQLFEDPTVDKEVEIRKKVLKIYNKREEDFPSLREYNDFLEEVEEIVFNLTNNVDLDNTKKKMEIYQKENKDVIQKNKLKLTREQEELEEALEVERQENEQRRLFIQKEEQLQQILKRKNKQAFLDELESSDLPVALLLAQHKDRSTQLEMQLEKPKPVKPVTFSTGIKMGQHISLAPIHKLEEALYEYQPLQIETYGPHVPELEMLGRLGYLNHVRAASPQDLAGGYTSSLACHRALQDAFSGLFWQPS
Experiment [2] deals with RNA Polymerase II Serine 5 phosphorylation in A549 cells overexpressing CDK7-mutant (C312S). Description: Imaging-based cellular RNA PolII Ser5 phosphorylation assay in A549 cells overexpressing CDK7-mutant (C312S). Format: cell-based, human. The note with it: RNA PolII Ser5 phosphorylation, averaged over all measurements; for IC50: Homo sapiens, A549, A549 cells overexpressing CDK7-mutant (C312S), read-out: CDK7_A549 mutant hCDK7(pIC50) (converted); for CDK7_A549 mutant hCDK7(pIC50): A549 cells overexpressing CDK7-mutant (C312S). The procedure, abridged: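 Readout was automated imaging of anti-phospho-Ser5 Rpb1 CTD immunofluorescence, with IC50 fitted to % control versus concentration. Cells were A549 stably overexpressing non-covalently targetable CDK7 C312S alongside wild-type, exposed to compound 3 h at 37 °C. DMSO and 10 μM reference compound served as controls.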

The subject of experiment [3] is RNA Polymerase II Serine 5 phosphorylation (Rpb1 CTD, downstream substrate of CDK7) in A549 cells. The experiment is described as follows: Imaging-based cellular RNA PolII Ser5 phosphorylation assay in A549 cells. Format: cell-based, human. The note with it: wild-type CDK7, RNA PolII Ser5 phosphorylation, averaged over all measurements; for IC50: Homo sapiens, A549, A549 cells, read-out: CDK7_A549 Wild-type CDK7 (pIC50) (converted); for CDK7_A549 Wild-type CDK7 (pIC50): A549 cells. The procedure, abridged: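 IC50 derived by fitting % control (DMSO high, 10 μM reference low) against concentration, with Hill slope. Readout: high-content imaging of phospho-Ser5 Rpb1 CTD antibody staining in fixed, permeabilized A549 cells exposed to compound 3 h after 20 h culture in 1% FBS DMEM.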

The mark [4] stands for this setting: read-out: CDK7 (20 nM enz.) (kinact/KI, M^−1*s^−1), 20 nM enzyme.

On to `C=CC(=O)N1CC(N2CC[C@@H](c3ccc4c(c3)Nc3nccc(N5CCOCC5)c3CO4)[C@@H](C)C2)C1` (mixture of isomers) [Compound 70], for which, in experiment [1] (read-out: CDK7 (20 nM enz.) (kobs/[I], M^−1*s^−1), 20 nM enzyme), the kinact/KI was determined as 634 M⁻¹ s⁻¹. Moreover, the results for the IC50 in experiment [2] and in experiment [3] were > 10000 nM and 145 nM, respectively.
Regarding `C=CC(=O)N1CC(N2CC[C@@H](c3ccc4c(c3)Nc3nccc(N5CCOCC5)c3CO4)[C@H](O)C2)C1` (mixture of isomers) [Compound 72], the Ki in experiment [1] (20 nM enzyme) was determined as 0.412 µM. The kinact – broadly, the maximal first-order rate at which the target is inactivated – in experiment [1] was 6.82e-05 s⁻¹. Besides, the kinact/KI in experiment [1] (setting [4]) was 166 M⁻¹ s⁻¹. Also, the IC50 in experiment [2] was > 10000 nM; in experiment [3], 589 nM.
Regarding `C=CC(=O)N1CC[C@H](N2CC(c3cc(C)c4c(c3)Nc3nccc(C5CCOCC5)c3CO4)C2)[C@H](F)C1` (mixture of isomers) [Compound 200], the Ki in experiment [1] (20 nM enzyme) is 0.0506 µM. The kinact in experiment [1] worked out at 4.11e-05 s⁻¹. Also, in experiment [1] (setting [4]), the kinact/KI was 812 M⁻¹ s⁻¹. In addition, the values for the IC50 in experiment [2] and in experiment [3] were ~10000 nM and 93.3 nM, respectively.
The corresponding values for `C=CC(=O)N1CC[C@@H](N2CC(c3cc(C)c4c(c3)Nc3nccc(-c5cnn(C)c5)c3CO4)C2)[C@@H](F)C1` (mixture of isomers) [Compound 201] are 0.0701 µM, 3.6e-05 s⁻¹, 514 M⁻¹ s⁻¹, ~10000 nM and 89.1 nM.
The matching figures for `C=CC(=O)N1CC[C@@H](N2CC(c3cc(C)c4c(c3)Nc3nccc(N5CCOCC5)c3CO4)C2)[C@@H](F)C1` (mixture of isomers) [Compound 202]: 0.0239 µM, 3.55e-05 s⁻¹, 1490 M⁻¹ s⁻¹, > 10000 nM and 107 nM.
The matching figures for `C=CC(=O)N1CC[C@@H](N2CC(c3cc(C)c4c(c3)Nc3nccc(-c5cnn(C)c5)c3CO4)C2)[C@H](F)C1` (mixture of isomers) [Compound 203]: 0.0523 µM, 4.19e-05 s⁻¹, 802 M⁻¹ s⁻¹, > 10000 nM and 81.3 nM.
As to `C=CC(=O)N1CC[C@@H](N2CC(c3cc(C)c4c(c3)Nc3nccc(N5CCOCC5)c3CO4)C2)[C@H](F)C1` (mixture of isomers) [Compound 207], in experiment [1] (20 nM enzyme), the Ki was 0.0443 µM. Besides, the kinact in experiment [1] was found to be 3.83e-05 s⁻¹. The kinact/KI in experiment [1] (setting [4]) stood at 865 M⁻¹ s⁻¹. For the same compound, the IC50 was > 10000 nM in experiment [2] and 83.2 nM in experiment [3].
The corresponding values for `C=CC(=O)N1CC[C@H](N2CC(c3cc4c(c(C)n3)OCc3c(-c5cnn(C)c5)ccnc3N4)C2)[C@@H](F)C1` (mixture of isomers) [Compound 212] are 0.2 µM, 2.94e-05 s⁻¹, 147 M⁻¹ s⁻¹, > 10000 nM and 398 nM.
Regarding `C=CC(=O)N1CC[C@H](N2CC(c3cc4c(c(C)n3)OCc3c(-c5cnn(C)c5)ccnc3N4)C2)[C@H](F)C1` (mixture of isomers) [Compound 213], the Ki in experiment [1] (20 nM enzyme) came to 0.267 µM. The kinact in experiment [1] stood at 4.9e-05 s⁻¹. Further, the kinact/KI in experiment [1] (setting [4]) is 183 M⁻¹ s⁻¹. For the same compound, the IC50 was > 10000 nM in experiment [2] and 251 nM in experiment [3].
The corresponding values for `C=CC(=O)N1CC[C@@H](N2CC(c3cc4c(c(C)n3)OCc3c(N5CCOCC5)ccnc3N4)C2)[C@H](F)C1` (mixture of isomers) [Compound 220] are 0.114 µM, 2.74e-05 s⁻¹, 240 M⁻¹ s⁻¹, > 10000 nM and 631 nM.
Take `C=CC(=O)N1CC(N2CC[C@H](c3ccc4c(c3)Nc3nccc(N5CCOCC5)c3CO4)[C@@H](F)C2)C1` (mixture of isomers) [Compound 226]: in experiment [1] (20 nM enzyme), the “CDK7 (20 nM enz.) (kinact/KI, M^−1*s^−1)” value is 100.867 M⁻¹ s⁻¹ and the Ki was 0.67 µM. For the same compound, in experiment [1], the inactivation rate constant (kinact) was determined as 6.76e-05 s⁻¹. In addition, the “CDK7_A549 mutant hCDK7(pIC50)” value in experiment [2] is given as <5. The “CDK7_A549 Wild-type CDK7 (pIC50)” value in experiment [3] was found to be 6.55.
For `CC#CC(=O)N1CCC(n2cc(-c3cc(C)c4c(c3)Nc3nccc(N5CCOCC5)c3CO4)cn2)CC1` [Compound 381], the IC50 in experiment [2] is 6920 nM; in experiment [3], 372 nM.
The matching figures for `C=CC(=O)N1CC(N2CCC(c3cc4c(c(P(C)(C)=O)n3)OCc3c(N5CCOCC5)ccnc3N4)CC2)C1` [Compound 383]: > 10000 nM and > 10000 nM.
The matching figures for `C=CC(=O)N1CCC(n2cc(-c3cc4c(c(C)n3)OCc3c(N5CCOCC5)ccnc3N4)cn2)CC1` [Compound 390]: 8710 nM and 214 nM.
The matching figures for `C=CC(=O)N1CCC(Oc2cc(-c3cc4c(c(C)n3)OCc3c(N5CCOCC5)ccnc3N4)ccn2)CC1` [Compound 407]: 7760 nM and 1910 nM.
Turning to `C=CC(=O)N1CCC(n2ccc(-c3ccc4c(c3)OCc3c(N5CCOCC5)ccnc3N4)cc2=O)CC1` [Compound 408], the IC50 in experiment [2] and in experiment [3] was > 10000 nM in each case.
Take `CC#CC(=O)N1CCC(Oc2cc(-c3cc4c(c(C)n3)OCc3c(N5CCOCC5)ccnc3N4)ccn2)CC1` [Compound 409]: the IC50 was 7080 nM in experiment [2] and 1450 nM in experiment [3].
The matching figures for `CC#CC(=O)N1CCC(n2ccc(-c3ccc4c(c3)OCc3c(N5CCOCC5)ccnc3N4)cc2=O)CC1` [Compound 412]: > 10000 nM and 9770 nM.
On to `Cc1nc(C2CCN(C3CN(C(=O)/C=C/C(=O)O)C3)CC2)cc2c1OCc1c(-c3cnn(C)c3)ccnc1N2` [Compound 432], for which the IC50 in experiment [2] and in experiment [3] was > 10000 nM each time.
For the compound `CC#CC(=O)N1CCC(C2CN(c3cc4c(c(C)n3)OCc3c(N5CCOCC5)ccnc3N4)C2)CC1` [Compound 451], the IC50 was > 10000 nM in experiment [2] and 302 nM in experiment [3].
The matching figures for `C=CC(=O)N1CCC2(CC1)CCN(c1cc3c(c(C)n1)OCc1c(-c4cnn(C)c4)ccnc1N3)CC2` [Compound 479]: > 10000 nM and > 10000 nM.
The corresponding values for `CC#CC(=O)N1CCC(N2CC(c3cc4c(c(C#N)n3)OC(C)c3c(N5CCOCC5)ccnc3N4)C2)CC1` (stereo not shown) [Compound 511] are 5620 nM and 115 nM.
Take `CC#CC(=O)N1CC(N2CCC(c3cc4c(c(C#N)n3)OC(C)c3c(N5CCOCC5)ccnc3N4)CC2)C1` (stereo not shown) [Compound 514]: the IC50 in experiment [2] is > 10000 nM; in experiment [3], 324 nM.
The matching figures for `C/C=C/C(=O)N1CC(N2CCC(c3cc4c(c(C)n3)OCc3c(-c5cnn(C)c5)ccnc3N4)CC2)C1` [Compound 537]: > 10000 nM and > 10000 nM.
On to `CC#CC(=O)N1CC(N2CCC(c3cc4c(c(C)n3)OCc3c(-c5cnn(C)c5)ccnc3N4)CC2)C1` [Compound 538], for which, in experiment [2], the “CDK7_A549 mutant hCDK7(pIC50)” value is given as <5. Also, the “CDK7_A549 Wild-type CDK7 (pIC50)” value in experiment [3] worked out at 6.49.
As to `CC#CC(=O)N1CCC(N2CC(c3nc(C)c4c(n3)Nc3nccc(N5CCOCC5)c3[C@@H](C)O4)C2)CC1` [Compound 546], the values for the IC50 in experiment [2] and in experiment [3] were > 10000 nM and 2750 nM, respectively.
The matching figures for `CC#CC(=O)N1CCC(N2CC(c3nc(C)c4c(n3)Nc3nccc(N5CCOCC5)c3[C@H](C)O4)C2)CC1` [Compound 547]: > 10000 nM and > 10000 nM.
